Converted amounts (≈) assume the structure as drawn. Like-named read-outs stand apart in the source and are kept apart here.
What was measured:
[1] = tested on: methicillin-sensitive Staphylococcus aureus; test: MIC by broth micro-dilution (CLSI), methicillin-sensitive S. aureus; type: cell-based; conditions: MSSA S. aureus ATCC29213
[2] = tested on: carbapenem sensitive Escherichia coli; test: MIC by broth micro-dilution (CLSI), carbapenem sensitive E. coli; type: cell-based
[3] = tested on: extended spectrum β lactamase (ESBL) SHV18 producing Klebsiella pneumoniae; test: MIC by broth micro-dilution (CLSI), ESBL SHV18 producing K. pneumoniae; type: cell-based; conditions: Klebsiella pneumoniae, ATCC700603, 22 h, ESBL +ve (SHV-18) K. pneumoniae ATCC700603; read-out: MIC
[4] = tested on: carbapenemase producing K. pneumoniae; test: MIC by broth micro-dilution (CLSI), carbapenemase producing K. pneumoniae; type: cell-based, Klebsiella pneumoniae
[5] = tested on: carbapenem sensitive Pseudomonas aeruginosa; test: MIC by broth micro-dilution (CLSI), carbapenem sensitive P. aeruginosa; type: cell-based
[6] = Staphylococcus aureus, ATCC 29213 / MSSA, read-out: MIC
[7] = Escherichia coli, ATCC25922, ESBL −ve E. coli ATCC25922, read-out: MIC
[8] = Klebsiella pneumoniae, ATCCBAA1705, KPC-2 K. pneumoniae ATCC BAA-1705, read-out: MIC
[9] = Pseudomonas aeruginosa, ATCC27853, Meropenem susceptible P. aeruginosa ATCC27853, read-out: MIC
[10] = KPC-2 K. pneumoniae ATCC BAA-1705
[11] = Meropenem susceptible P. aeruginosa ATCC27853

SMILES	MIC [1, 6] [µg/mL]	MIC [2, 7] [µg/mL]	MIC [3] [µg/mL]	MIC [4, 8] [µg/mL]	MIC [5, 9] [µg/mL]	MIC [1] [µg/mL]	MIC ([2]; ESBL −ve E. coli ATCC25922) [µg/mL]	MIC [4, 10] [µg/mL]	MIC [5, 11] [µg/mL]	MIC ([1]; Staphylococcus aureus, ATCC29213|MSSA, read-out: MIC) [µg/mL]
C[C@@H](NC(=O)C[S+]([O-])C(F)F)[C@H]1C(=O)N2C(C(=O)O)=C(S[C@@H]3CN[C@H](C(=O)N(C)C)C3)[C@H](C)[C@H]12 (mixture of isomers) [Example 82]	8	1	2	8	128					
CC(F)C(=O)N[C@H](C)[C@H]1C(=O)N2C(C(=O)O)=C(S[C@@H]3CN[C@H](C(=O)N(C)C)C3)[C@H](C)[C@H]12 (mixture of isomers) [Example 84]	4	1	4	16	128					
C[C@@H](NS(C)(=O)=O)[C@H]1C(=O)N2C(C(=O)O)=C(S[C@@H]3CN[C@H](C(=O)N4CCC(N)C4)C3)[C@H](C)[C@H]12 (stereo in doubt) [Example 362, (4R,5S,6S)-3-((3S,5S)-5-((R)-3-aminopyrrolidine-1-carbonyl)pyrrolidin-3-ylthio)-4-methyl-6-((R)-1-(methylsulfonamido)ethyl)-7-oxo-1-azabicyclo[3.2.0]hept-2-ene-2-carboxylic acid]	8 (≈ 15.9 µM)	0.25 (≈ 0.498 µM)	4 (≈ 7.97 µM)	4 (≈ 7.97 µM)	4 (≈ 7.97 µM)					
C[C@@H](NC(=O)Cc1cccs1)[C@H]1C(=O)N2C(C(=O)O)=C(S[C@@H]3CN[C@H](C(=O)N(C)C)C3)[C@H](C)[C@H]12 [Example 5]	8 (≈ 15.8 µM)	8 (≈ 15.8 µM)	> 128	> 128	> 128					
C[C@@H](NS(C)(=O)=O)[C@H]1C(=O)N2C(C(=O)O)=C(S[C@@H]3CN[C@H](CNS(N)(=O)=O)C3)[C@H](C)[C@H]12 [Example 7]	2 to 8 (≈ 4.02 to 16.1 µM)	0.5 (≈ 1 µM)	2 to 4 (≈ 4.02 to 8.04 µM)	2 to 4 (≈ 4.02 to 8.04 µM)	32 to 64 (≈ 64.3 to 129 µM)					
COc1ccc(S(=O)(=O)N[C@H](C)[C@H]2C(=O)N3C(C(=O)O)=C(S[C@@H]4CN[C@H](C(=O)N(C)C)C4)[C@H](C)C23)cc1OC (stereo partly drawn) [Example 9]	8 (≈ 13.7 µM)	128 (≈ 220 µM)	> 128	> 128	> 128					
CCS(=O)(=O)N[C@H](C)[C@H]1C(=O)N2C(C(=O)O)=C(S[C@@H]3CN[C@H](C(=O)N(C)C)C3)[C@H](C)[C@H]12 [Example 10]	16 (≈ 33.7 µM)	1 (≈ 2.11 µM)	2 (≈ 4.21 µM)	4 (≈ 8.43 µM)	> 128					
C[C@@H](NS(=O)(=O)c1ccccc1)[C@H]1C(=O)N2C(C(=O)O)=C(S[C@@H]3CN[C@H](C(=O)N(C)C)C3)[C@H](C)[C@H]12 [Example 11]	8 (≈ 15.3 µM)	4 (≈ 7.65 µM)	64 (≈ 122 µM)	32 (≈ 61.2 µM)	> 128					
C[C@@H](NS(=O)(=O)c1ccc(F)cc1)[C@H]1C(=O)N2C(C(=O)O)=C(S[C@@H]3CN[C@H](C(=O)N(C)C)C3)[C@H](C)[C@H]12 [Example 12]	8 (≈ 14.8 µM)	4 (≈ 7.4 µM)	128 (≈ 237 µM)	32 (≈ 59.2 µM)	> 128					
C[C@@H](NS(=O)(=O)C(F)(F)F)[C@H]1C(=O)N2C(C(=O)O)=C(S[C@@H]3CN[C@H](C(=O)N(C)C)C3)[C@H](C)[C@H]12 [Example 13]	4 (≈ 7.77 µM)	1 (≈ 1.94 µM)	8 (≈ 15.5 µM)	4 (≈ 7.77 µM)	64 (≈ 124 µM)					
COC(=O)N[C@H](C)[C@H]1C(=O)N2C(C(=O)O)=C(S[C@@H]3CN[C@H](C(=O)N(C)C)C3)[C@H](C)[C@H]12 [Example 14]	4 (≈ 9.08 µM)	0.5 (≈ 1.14 µM)	4 (≈ 9.08 µM)	4 (≈ 9.08 µM)	128 (≈ 291 µM)					
C[C@@H](NC(=O)Cn1cnnn1)[C@H]1C(=O)N2C(C(=O)[O-])=C(SCc3ccc(-c4cn(CCCN)[n+](C)c4)cc3)[C@H](C)[C@H]12 [Example 596, (4R,5S,6R)-6-((R)-1-(2-(1H-tetrazol-1-yl)acetamido)ethyl)-3-(4-(1-(3-aminopropyl)-2-methyl-1H-pyrazol-2-ium-4-yl)benzylthio)-4-methyl-7-oxo-1-azabicyclo[3.2.0]hept-2-ene-2-carboxylate]	2 (≈ 3.45 µM)	1 (≈ 1.73 µM)		16 (≈ 27.6 µM)	32 (≈ 55.2 µM)					
C[C@@H](NC(=O)Cn1cnnn1)[C@H]1C(=O)N2C(C(=O)[O-])=C(S[C@@H]3CN[C@H](C(=O)N4CCC5C[N+](C)(C)CCC54)C3)[C@H](C)[C@H]12 (stereo partly drawn) [Example 598]		1 (≈ 1.66 µM)		2 (≈ 3.32 µM)					16 (≈ 26.6 µM)	8 (≈ 13.3 µM)

Now from value to molecule:

MIC [1, 6] [µg/mL]	MIC [2, 7] [µg/mL]	MIC [3] [µg/mL]	MIC [4, 8] [µg/mL]	MIC [5, 9] [µg/mL]	MIC [1] [µg/mL]	MIC ([2]; ESBL −ve E. coli ATCC25922) [µg/mL]	MIC [4, 10] [µg/mL]	MIC [5, 11] [µg/mL]	MIC ([1]; Staphylococcus aureus, ATCC29213|MSSA, read-out: MIC) [µg/mL]	SMILES
4 (≈ 8.12 µM)	0.5 (≈ 1.02 µM)		2 (≈ 4.06 µM)	16 (≈ 32.5 µM)						C[C@@H](NC(=O)Cn1cnnn1)[C@H]1C(=O)N2C(C(=O)O)=C(S[C@@H]3CN[C@H](CNC(=N)N)C3)[C@H](C)[C@H]12 [Example 589, (4R,5S,6R)-6-((R)-1-(2-(1H-tetrazol-1-yl)acetamido)ethyl)-3-((3S,5S)-5-(guanidinomethyl)pyrrolidin-3-ylthio)-4-methyl-7-oxo-1-azabicyclo[3.2.0]hept-2-ene-2-carboxylic acid]
					2 (≈ 3.67 µM)	0.25 (≈ 0.458 µM)	1 (≈ 1.83 µM)	1 (≈ 1.83 µM)		C[C@@H](NC(=O)Cn1cnnn1)[C@H]1C(=O)N2C(C(=O)O)=C(S[C@@H]3CN[C@H](C(=O)N4CC5CNC5C4)C3)[C@H](C)[C@H]12 (stereo partly drawn) [Example 591, (4R,5S,6R)-6-((R)-1-(2-(1H-tetrazol-1-yl)acetamido)ethyl)-3-((3S,5S)-5-(3,6-diazabicyclo[3.2.0]heptane-3-carbonyl)pyrrolidin-3-ylthio)-4-methyl-7-oxo-1-azabicyclo[3.2.0]hept-2-ene-2-carboxylic acid]
2 (≈ 3.3 µM)	0.125 (≈ 0.206 µM)		0.5 (≈ 0.826 µM)	0.5 (≈ 0.826 µM)						C[C@@H](NC(=O)Cn1cnnn1)[C@H]1C(=O)N2C(C(=O)O)=C(S[C@@H]3CN[C@H](C(=O)N4C[C@H](CO)[C@@H](NC(=N)N)C4)C3)[C@H](C)[C@H]12 [Example 592, (4R,5S,6R)-6-((R)-1-(2-(1H-tetrazol-1-yl)acetamido)ethyl)-3-((3S,5S)-5-((3R,4S)-3-guanidino-4-diazabicyclo[3.2.0]heptane-3-(hydroxymethyl)pyrrolidine-1-carbonyl)pyrrolidin-3-ylthio)-4-methyl-7-oxo-1-azabicyclo[3.2.0]hept-2-ene-2-carboxylic acid]
16 (≈ 31.9 µM)	1 (≈ 1.99 µM)		32 (≈ 63.8 µM)	128 (≈ 255 µM)						C[C@@H](NC(=O)Cn1cnnn1)[C@H]1C(=O)N2C(C(=O)O)=C(Sc3cnn(C[C@@H]4CCNC4)c3)[C@H](C)[C@H]12 [Example 593, (4R,5S,6R)-6-((R)-1-(2-(1H-tetrazol-1-yl)acetamido)ethyl)-4-methyl-7-oxo-3-(1-((R)-pyrrolidin-3-ylmethyl)-1H-pyrazol-4-ylthio)-1-azabicyclo[3.2.0]hept-2-ene-2-carboxylic acid]
1 (≈ 1.75 µM)	32 (≈ 55.9 µM)		> 128	> 128						C[C@@H](NC(=O)Cn1cnnn1)[C@H]1C(=O)N2C(C(=O)[O-])=C(Sc3cnn(CC4CC[N+](C)(CCN)CC4)c3)[C@H](C)[C@H]12 (stereo partly drawn) [Example 594, (4R,5S,6R)-6-((R)-1-(2-(1H-tetrazol-1-yl)acetamido)ethyl)-3-(1-((1-(2-aminoethyl)-1-methylpiperidinium-4-yl)methyl)-1H-pyrazol-4-ylthio)-4-methyl-7-oxo-1-azabicyclo[3.2.0]hept-2-ene-2-carboxylate]
4 (≈ 7.76 µM)	4 (≈ 7.76 µM)		32 (≈ 62.1 µM)	32 (≈ 62.1 µM)						C[C@@H](NC(=O)Cn1cnnn1)[C@H]1C(=O)N2C(C(=O)[O-])=C(Sc3cn(C[C@@H]4CCNC4)[n+](C)c3)[C@H](C)[C@H]12 [Example 597, (4R,5S,6R)-6-((R)-1-(2-(1H-tetrazol-1-yl)acetamido)ethyl)-4-methyl-3-(2-methyl-1-((R)-pyrrolidin-3-ylmethyl)-1H-pyrazol-2-ium-4-ylthio)-7-oxo-1-azabicyclo[3.2.0]hept-2-ene-2-carboxylate]
					4 (≈ 6.65 µM)	1 (≈ 1.66 µM)	2 (≈ 3.32 µM)	4 (≈ 6.65 µM)		C[C@@H](NC(=O)Cn1cnnn1)[C@H]1C(=O)N2C(C(=O)[O-])=C(S[C@@H]3CN[C@H](C(=O)N4CCC5C[N+](C)(C)CCC54)C3)[C@H](C)[C@H]12 (stereo partly drawn) [Example 599]
0.5 (≈ 1.05 µM)	0.5 (≈ 1.05 µM)		4 (≈ 8.39 µM)	16 (≈ 33.6 µM)						C[C@@H](NC(=O)Cn1cnnn1)[C@H]1C(=O)N2C(C(=O)O)=C(CN3C[C@H](NC(=N)N)[C@@H](O)C3)[C@H](C)[C@H]12 [Example 600, (4S,5R,6R)-6-((R)-1-(2-(1H-tetrazol-1-yl)acetamido)ethyl)-3-(((3S,4S)-3-guanidino-4-hydroxypyrrolidin-1-yl)methyl)-4-methyl-7-oxo-1-azabicyclo[3.2.0]hept-2-ene-2-carboxylic acid]
2 (≈ 3.57 µM)	2 (≈ 3.57 µM)		64 (≈ 114 µM)	128 (≈ 229 µM)						C[C@@H](NC(=O)Cn1cnnn1)[C@H]1C(=O)N2C(C(=O)O)=C(S[C@@H]3CN[C@H](C(=O)N4CCC5CNCCC54)C3)C[C@H]12 (stereo partly drawn) [Example 601, (5R,6R)-6-((R)-1-(2-(1H-tetrazol-1-yl)acetamido)ethyl)-3-((3S,5S)-5-(octahydro-1H-pyrrolo[3,2-c]pyridine-1-carbonyl)pyrrolidin-3-ylthio)-7-oxo-1-azabicyclo[3.2.0]hept-2-ene-2-carboxylic acid]

Source: patent publication US11180504B2 (ORCHID PHARMA LTD., priority 2016, dated 2021)
